Consider three compounds from paper PMC5943490, “Altered Expression of the Malate-Permeable Anion Channel OsALMT4 Reduces the Growth of Rice Under Low Radiance” (Frontiers in Plant Science, 2018).

Test [1] addresses T1, OsALMT4 (Oryza sativa, UniProt Q0JPI1).
T1 construct: gene Os01g0221600; full-length, constitutively over-expressed in transgenic rice (homozygous line OX5)
T1 sequence (Q0JPI1 1-524): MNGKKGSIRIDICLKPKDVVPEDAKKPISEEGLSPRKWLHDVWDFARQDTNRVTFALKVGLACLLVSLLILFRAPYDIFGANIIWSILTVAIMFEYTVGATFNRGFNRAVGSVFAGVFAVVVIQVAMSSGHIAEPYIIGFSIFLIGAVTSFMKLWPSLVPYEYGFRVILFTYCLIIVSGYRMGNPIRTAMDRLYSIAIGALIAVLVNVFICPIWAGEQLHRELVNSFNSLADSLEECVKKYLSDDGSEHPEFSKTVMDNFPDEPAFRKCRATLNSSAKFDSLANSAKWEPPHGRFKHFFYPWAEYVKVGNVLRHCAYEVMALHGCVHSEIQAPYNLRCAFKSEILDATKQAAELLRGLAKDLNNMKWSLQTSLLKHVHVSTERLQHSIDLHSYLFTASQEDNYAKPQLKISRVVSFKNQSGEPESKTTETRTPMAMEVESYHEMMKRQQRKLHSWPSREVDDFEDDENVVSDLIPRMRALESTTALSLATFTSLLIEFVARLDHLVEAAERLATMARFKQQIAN
As to the kind of experiment: malate efflux from intact OX5 seedlings, concentration series. The following applies: read-out: Ki (half maximum inhibition).

For test [2], the target named is T1, OsALMT4. The test can be described thus: malate efflux from intact OX5 and OX5_null seedlings. The following applies: pH 5.6; transported anion, stereo not told.
Test [3] has as its target T1, OsALMT4. As to the kind of experiment: malate efflux from intact OX5 seedlings. The following applies: read-out: malate efflux, % of control at 100 μM.

`O=C(O)c1ccccc1O` [SA, salicylic acid]: the IC50 at OsALMT4 [1] turned out to be 25 µM.

As for `O=C(O)C[C@H](O)C(=O)O` [malate], on OsALMT4 [2], the “malate efflux from intact OX5 and OX5_null seedlings” value is “SA treatment effectively inhibited malate efflux via OsALMT4 in the transgenic OX lines”.

Turning to `O=C(O)c1cccnc1Nc1cccc(C(F)(F)F)c1` [niflumate], the remaining activity at 100 µM on OsALMT4 [3] is less than 20%.
